The values below come from patent publication US20240351997A1, “NOVEL PARP7 INHIBITOR AND USE THEREOF” (SHANGHAI QILU PHARMACEUTICAL RESEARCH AND DEVELOPMENT …, priority 2021, published 2024).

One may read the AUC as concentration integrated over time. What is called half-life is the time in which the quantity being followed falls by half. A higher half-life goes with slow loss. The Cmax is the highest concentration seen after dosing. As a reminder, the IC50 is the concentration at which inhibition is half-maximal. The low end stands for greater potency in that assay, the high end for weaker potency in that assay.

Series [1] is described as follows: In vivo pharmacokinetic assay in rats (intravenous injection and oral administration). Particulars: SD rats; for AUC / clearance / half-life / Vd / Cmax: male, rat, plasma; for Vd: read-out: Vss. From the text:
(§1) III. In Vivo Pharmacokinetic Assay in Mice and Rats
(§2) The pharmacokinetic behavior of the compound of the present disclosure in plasma after a single intravenous injection and oral administration was studied using male C57BL/6 mice or SD male rats as experimental animals.
(§3) Healthy adult C57BL/6 mice or SD rats (3 mice or rats per group), male, supplied by Shanghai Jihui Laboratory Animal Care Co., Ltd. and Vital River Laboratory Animal Technology Co., Ltd.
(§4) Both the intravenous injection and oral administration groups consisted of 3 mice or rats. The intravenous injection was at a dose of 1 mg/kg and in a volume of 5 mL/kg; the oral administration was at a dose of 5 mg/kg and in a volume of 10 mL/kg. The vehicle for administration was 5% DMSO/5% Kolliphor HS 15/90% Saline.
(§5) 2.3 Experimental Equipment
(§6) The centrifuge was purchased from Eppendorf, and the pipette was purchased from Eppendorf.
(§7) After the animals were administered, 0.02 mL of blood was collected from the vein at 0.0833 (IV), 0.25, 0.5, 1, 2, 4, 8, and 24 hours, respectively, placed in an EDTA-K2 test tube, centrifuged at 4600 rpm for 5 minutes at 4° C. to separate the plasma, and stored at −80° C.
(§8) 1) 10 μL of plasma sample was precipitated by adding 200 μL of acetonitrile, vortexed to mix, and centrifuged for 15 minutes.
(§9) 2) The treated supernatant was diluted with water, and the concentration of the test compound was analyzed by LC/MS/MS.
(§10) • Liquid phase conditions: Shimadzu LC-30AD • Mass spectrometry conditions: AB Sciex API 5500 • Chromatographic column: Phenomenex Kinetex 2.6 μm C18 • Mobile phases: A: 5 mM ammonium acetate aqueous solution (containing 0.05% formic acid); B: acetonitrile (containing 0.1% formic acid); flow rate: 0.5 mL/min
(§11) 3. Experimental Results and Analysis
(§12) Pharmacokinetic parameters were calculated using WinNonlin 8.0, and the pharmacokinetic parameters for intravenous injection and oral administration in mice or rats are shown in Table 2 and Table 3 below: […]

The target in series [2] is PARP7 (Homo sapiens (Human), UniProt Q7Z3E1). In words: In vitro enzymology experiment of PARP7 (enzymatic inhibition). It counts as biochemical. A digest of the protocol:
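Histone-coated plate ADP-ribosylation format: compound preincubated 10 min at room temperature with preincubated (25 °C, 10 min) enzyme mixture; incorporated biotin detected by streptavidin-HRP and QuantaRed fluorescence (Ex550/Em620).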

A short description of series [3]: In vivo pharmacokinetic assay in mice (intravenous injection and oral administration). As to conditions: C57BL/6 mice; for AUC / clearance / half-life / Vd / Cmax: male, mouse, plasma; for Vd: read-out: Vss.
Text: as §1, §2, §3, §4, §5, §6, §7, §8, §9, §10, §11, §12

PARP7, sequence (Q7Z3E1 whole entry): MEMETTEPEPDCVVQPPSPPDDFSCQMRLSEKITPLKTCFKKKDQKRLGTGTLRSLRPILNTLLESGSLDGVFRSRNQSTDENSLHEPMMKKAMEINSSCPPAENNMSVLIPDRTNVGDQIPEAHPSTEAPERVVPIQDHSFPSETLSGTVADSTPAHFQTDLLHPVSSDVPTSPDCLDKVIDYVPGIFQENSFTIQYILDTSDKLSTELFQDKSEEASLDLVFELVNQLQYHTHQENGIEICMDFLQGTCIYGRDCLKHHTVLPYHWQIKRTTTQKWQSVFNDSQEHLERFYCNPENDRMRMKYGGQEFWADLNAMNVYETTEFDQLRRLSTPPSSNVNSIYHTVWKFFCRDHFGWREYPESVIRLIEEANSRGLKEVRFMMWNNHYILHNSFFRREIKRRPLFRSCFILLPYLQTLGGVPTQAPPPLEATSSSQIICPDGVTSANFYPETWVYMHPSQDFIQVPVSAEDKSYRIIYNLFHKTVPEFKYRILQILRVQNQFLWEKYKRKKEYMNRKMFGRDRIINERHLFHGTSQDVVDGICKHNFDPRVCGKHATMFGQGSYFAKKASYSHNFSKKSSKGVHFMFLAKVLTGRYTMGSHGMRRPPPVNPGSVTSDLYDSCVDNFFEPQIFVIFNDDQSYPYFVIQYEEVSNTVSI

With `O=C(OCCc1c[nH]c(=O)c(C(F)(F)F)c1)N1CCN(c2ncc(C(F)(F)F)cn2)CC1` [Example 3, 2-(6-Oxo-5-(trifluoromethyl)-1,6-dihydropyridin-3-yl)ethyl 4-(5-(trifluoromethyl)pyrimidin-2-yl)piperazine-1-carboxylate], in series [1] (oral administration, 5 mg/kg), the F was 47%, the AUC worked out at 13.8 µg·h/mL and the concentration peaked (Cmax) at 2.35 µg/mL. For the same molecule, in series [1] (intravenous injection, 1 mg/kg), the AUC stood at 5.75 µg·h/mL, the clearance was 0.2 L/h/kg, the half-life is 4.7 h and the Vd was determined as 0.9 L/kg. This molecule returned a half-maximal inhibitory concentration (IC50) in series [2] of 1.8 nM. For the same molecule, in series [3] (oral administration, 5 mg/kg), the F is 80%, the AUC was found to be 42.2 µg·h/mL and the concentration peaked (Cmax) at 9.31 µg/mL. Further, in series [3] (intravenous injection, 1 mg/kg), the AUC was determined as 10.4 µg·h/mL, the clearance was 0.09 L/h/kg, the half-life was 6.1 h and the Vd was 0.6 L/kg.

In series [1] (oral administration, 5 mg/kg), `C[C@@H](Cc1c[nH]c(=O)c(C(F)(F)F)c1)OC(=O)N1CCN(c2ncc(C(F)(F)F)cn2)CC1` (single isomer, unassigned) [Example 35] had an F of 35%, an AUC of 1.06 µg·h/mL and a Cmax of 0.434 µg/mL. For the same molecule, in series [1] (intravenous injection, 1 mg/kg), the AUC was 0.633 µg·h/mL, the clearance is 1.7 L/h/kg, the half-life is 3.5 h and the Vd stood at 3.3 L/kg. For the same molecule, 0.53 nM corresponded to half-maximal inhibition in series [2] (IC50). Besides, in series [3] (oral administration, 5 mg/kg), the F came to 52%, the AUC was determined as 6.76 µg·h/mL and the Cmax is 3.75 µg/mL. In addition, in series [3] (intravenous injection, 1 mg/kg), the AUC was 2.57 µg·h/mL, the clearance was 0.4 L/h/kg, the half-life was 4.2 h and the Vd was determined as 1.5 L/kg.

In series [1] (oral administration, 5 mg/kg), `C[C@@H](Cc1c[nH]c(=O)c(C(F)(F)F)c1)OC(=O)N1CCN(c2ncc(C(F)(F)F)cn2)[C@@H](C)C1` [Example 93, (S)-1-(6-Oxo-5-(trifluoromethyl)-1,6-dihydropyridin-3-yl)propan-2-yl (S)-3-methyl-4-(5-(trifluoromethyl)pyrimidin-2-yl)piperazine-1-carboxylate] yielded an F of 77%, an AUC of 3.83 µg·h/mL and a Cmax of 0.809 µg/mL. In series [1] (intravenous injection, 1 mg/kg), the AUC was 0.978 µg·h/mL, the clearance is 1 L/h/kg, the half-life was 1.9 h and the Vd was 1.9 L/kg. The molecule also gave an IC50 in series [2] of 0.78 nM.

On to `C[C@@H]1CN(c2ncc(C(F)(F)F)cn2)CCN1C(=O)OCCc1c[nH]c(=O)c(C(F)(F)F)c1` [Example 109, 2-(6-Oxo-5-(trifluoromethyl)-1,6-dihydropyridin-3-yl)ethyl (R)-2-methyl-4-(5-(trifluoromethyl)pyrimidin-2-yl)piperazine-1-carboxylate], for which, in series [1] (oral administration, 5 mg/kg), the F stood at 99%, the AUC turned out to be 5.38 µg·h/mL and the maximum concentration (Cmax) is 1.31 µg/mL. Moreover, in series [1] (intravenous injection, 1 mg/kg), the AUC was determined as 1.06 µg·h/mL, the clearance is 0.9 L/h/kg, the half-life was 2.3 h and the Vd came out at 2.1 L/kg. The molecule also gave an IC50 in series [2] of 0.38 nM. Besides, in series [3] (oral administration, 5 mg/kg), the F is 72%, the AUC came to 29.6 µg·h/mL and the peak level (Cmax) was 8.49 µg/mL. In series [3] (intravenous injection, 1 mg/kg), the AUC came to 8.1 µg·h/mL, the clearance is 0.1 L/h/kg, the half-life was 6.3 h and the Vd amounted to 0.6 L/kg.
